The CheMixHub drug solubility set

Experiment: xn = mol fraction of the nth substance listed, in the solute-free solvent

NC(Cc1c[nH]c2ccccc12)C(=O)O (stereo not drawn) + O + CO
solubility (g/100 g solution)
Settings	288.15 K	293.15 K	298.15 K	303.15 K	308.15 K
x2 = 0.1908	0.556	0.608	0.684	0.776	0.875
x2 = 0.3955	0.677	0.741	0.831	0.94	1.06
x2 = 0.595	0.827	0.902	1.01	1.14	1.28
x2 = 0.7962	1.02	1.11	1.23	1.38	1.56

CN1CCC(N(Cc2cccs2)c2ccccc2)CC1 + CC(C)O + O
solubility (g/100 g solution)
Settings	278.15 K	283.15 K	288.15 K	293.15 K	298.15 K	303.15 K	308.15 K	313.15 K	318.15 K	323.15 K
x2 = 0.03225	0.141	0.15	0.16	0.173	0.19	0.208	0.229	0.249	0.274	0.301
x2 = 0.06974	0.326	0.345	0.365	0.394	0.428	0.466	0.508	0.551	0.601	0.656
x2 = 0.1139	0.573	0.606	0.64	0.689	0.746	0.809	0.879	0.952	1.03	1.13
x2 = 0.1666	0.834	0.881	0.933	1.01	1.09	1.18	1.28	1.39	1.51	1.64
x2 = 0.2307	1.04	1.1	1.18	1.28	1.4	1.51	1.64	1.78	1.95	2.12
x2 = 0.3103	1.24	1.33	1.43	1.54	1.67	1.81	1.96	2.11	2.3	2.52
x2 = 0.4117	1.4	1.51	1.62	1.75	1.93	2.12	2.32	2.54	2.77	3.04
x2 = 0.5454	1.55	1.68	1.82	1.99	2.15	2.34	2.58	2.83	3.11	3.42
x2 = 0.7297	1.61	1.77	1.95	2.14	2.35	2.6	2.85	3.13	3.41	3.74

Nc1cccc2ccncc12 + CC(C)O + O
solubility (g/100 g solution)
Settings	278.15 K	283.15 K	288.15 K	293.15 K	298.15 K	303.15 K	308.15 K	313.15 K	318.15 K	323.15 K
x2 = 0.03225	0.0706	0.0813	0.0925	0.109	0.123	0.142	0.165	0.191	0.218	0.252
x2 = 0.06974	0.141	0.163	0.184	0.215	0.244	0.279	0.323	0.372	0.424	0.489
x2 = 0.1139	0.235	0.271	0.306	0.357	0.405	0.463	0.534	0.617	0.702	0.808
x2 = 0.1666	0.339	0.393	0.445	0.519	0.59	0.676	0.78	0.902	1.03	1.18
x2 = 0.2307	0.393	0.466	0.559	0.658	0.767	0.883	1.02	1.18	1.36	1.58
x2 = 0.3103	0.5	0.587	0.696	0.819	0.952	1.09	1.26	1.47	1.68	1.95
x2 = 0.4117	0.573	0.687	0.826	0.98	1.13	1.3	1.5	1.75	2.02	2.35
x2 = 0.5454	0.633	0.765	0.915	1.08	1.25	1.46	1.7	1.97	2.3	2.69
x2 = 0.7297	0.576	0.73	0.906	1.1	1.31	1.58	1.84	2.16	2.51	2.94

CC(=O)Oc1cccc2c1C(=O)c1c(OC(C)=O)cc(C(=O)O)cc1C2=O + CC(=O)N(C)C + O
solubility (g/100 g solution)
Settings	x2 = 0.02247	x2 = 0.04917	x2 = 0.08143	x2 = 0.1212	x2 = 0.1714	x2 = 0.2368	x2 = 0.3255	x2 = 0.4528	x2 = 0.6506
278.15 K	0.00282	0.0125	0.0358	0.0823	0.255	0.368	0.38	0.452	0.496
283.15 K	0.00402	0.0162	0.0459	0.107	0.313	0.441	0.521	0.622	0.691
288.15 K	0.00537	0.0204	0.0587	0.137	0.374	0.525	0.683	0.821	0.927
293.15 K	0.00727	0.0256	0.0748	0.173	0.444	0.633	0.885	1.07	1.18
298.15 K	0.00929	0.0324	0.0937	0.219	0.532	0.779	1.12	1.35	1.47
303.15 K	0.0112	0.0405	0.119	0.274	0.633	0.95	1.38	1.69	1.81
308.15 K	0.0139	0.0502	0.149	0.343	0.746	1.16	1.7	2.1	2.29
313.15 K	0.0168	0.0643	0.184	0.429	0.862	1.44	2.04	2.54	2.83

CN1CCC(N(Cc2cccs2)c2ccccc2)CC1 + CCCO + O
solubility (g/100 g solution)
Settings	278.15 K	283.15 K	288.15 K	293.15 K	298.15 K	303.15 K	308.15 K	313.15 K	318.15 K	323.15 K
x2 = 0.03225	0.166	0.176	0.187	0.203	0.221	0.243	0.267	0.289	0.318	0.348
x2 = 0.06974	0.411	0.434	0.458	0.492	0.533	0.581	0.632	0.682	0.743	0.808
x2 = 0.1139	0.734	0.774	0.815	0.873	0.943	1.02	1.11	1.2	1.3	1.41
x2 = 0.1666	1.05	1.11	1.18	1.26	1.36	1.48	1.61	1.73	1.88	2.04
x2 = 0.2307	1.32	1.4	1.49	1.6	1.73	1.89	2.06	2.22	2.41	2.62
x2 = 0.3103	1.55	1.66	1.77	1.91	2.08	2.26	2.48	2.69	2.93	3.18
x2 = 0.4117	1.77	1.9	2.04	2.21	2.4	2.63	2.87	3.13	3.45	3.75
x2 = 0.5454	1.97	2.13	2.3	2.5	2.74	3	3.31	3.62	3.96	4.32
x2 = 0.7297	2.09	2.27	2.47	2.7	2.97	3.26	3.62	3.98	4.36	4.77

Cc1ccc2cc(Br)ccc2n1 + CCO + O
solubility (g/100 g solution)
Settings	278.15 K	283.15 K	288.15 K	293.15 K	298.15 K	303.15 K	308.15 K	313.15 K	318.15 K	323.15 K
x2 = 0.04165	0.0289	0.0336	0.0393	0.0455	0.0528	0.0607	0.0707	0.0816	0.0939	0.108
x2 = 0.08908	0.0673	0.0777	0.0902	0.103	0.119	0.137	0.158	0.181	0.207	0.237
x2 = 0.1436	0.119	0.137	0.159	0.181	0.209	0.239	0.276	0.315	0.359	0.411
x2 = 0.2068	0.176	0.203	0.234	0.267	0.308	0.354	0.408	0.466	0.53	0.607
x2 = 0.2812	0.218	0.26	0.304	0.347	0.4	0.46	0.535	0.61	0.695	0.798
x2 = 0.3698	0.266	0.313	0.373	0.43	0.501	0.579	0.667	0.762	0.873	1.01
x2 = 0.4772	0.308	0.37	0.442	0.521	0.603	0.705	0.819	0.935	1.07	1.24
x2 = 0.6101	0.356	0.425	0.505	0.593	0.693	0.812	0.948	1.09	1.27	1.47
x2 = 0.7788	0.399	0.477	0.569	0.67	0.785	0.925	1.08	1.25	1.44	1.66

CC(=O)Oc1cccc2c1C(=O)c1c(OC(C)=O)cc(C(=O)O)cc1C2=O + CCOC(C)=O + CCO
solubility (g/100 g solution)
Settings	273.15 K	278.15 K	283.15 K	288.15 K	293.15 K	298.15 K	303.15 K	308.15 K	313.15 K
x2 = 0.05491	0.00668	0.0091	0.0121	0.016	0.0207	0.0262	0.0328	0.04	0.0477
x2 = 0.1156	0.00776	0.0107	0.0144	0.0188	0.0241	0.0303	0.0382	0.0464	0.0564
x2 = 0.1831	0.015	0.0183	0.022	0.0265	0.0324	0.0391	0.0465	0.0555	0.0662
x2 = 0.2585	0.0202	0.0259	0.0317	0.0381	0.045	0.0534	0.0632	0.0734	0.0846
x2 = 0.3434	0.0268	0.0331	0.0402	0.0487	0.0574	0.067	0.078	0.0898	0.103
x2 = 0.4396	0.033	0.0398	0.0471	0.0563	0.0659	0.0773	0.0893	0.103	0.118
x2 = 0.5496	0.0337	0.0411	0.0496	0.0593	0.0698	0.0813	0.0934	0.109	0.125
x2 = 0.6765	0.0349	0.0419	0.0506	0.0609	0.0723	0.0849	0.0975	0.112	0.127
x2 = 0.8247	0.0222	0.0276	0.0334	0.0401	0.048	0.0562	0.0655	0.0763	0.087

NCCS(=O)(=O)O + O + CC#N
solubility (g/100 g solution)
Settings	298.15 K	303.15 K	308.15 K	313.15 K	318.15 K
x2 = 0.6949	0.528	0.562	0.597	0.644	0.864
x2 = 0.7736	1.15	1.28	1.37	1.54	1.75
x2 = 0.8417	2.09	2.47	2.66	2.99	3.69
x2 = 0.9011	3.76	4.25	4.87	6.01	7.16
x2 = 0.9535	6.1	7.22	8.46	9.89	11.6
